Reference: patent US11000033B2, “Ketone or oxime compound, and herbicide” (NISSAN CHEMICAL CORPORATION, priority 2014, dated 2021)

How the values were obtained:
Assay type in all cases: in vivo
[1] = test system: Scirpus juncoides; test: Test Example 1: herbicidal activity, application before weed generation in submerged conditions (symbol B); details: application herbicide amount 320 g/ha
Procedure, shortened: (§1)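 Flooded alluvial soil (4 cm water) was mixed-sown with the three weed species, and 2.5-leaf rice seedlings were transplanted. On sowing day, a water-diluted emulsion at a predetermined rate was applied to the water surface. After 3 weeks in a 25–30 °C greenhouse, effect was scored 0–5.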

[2] = test system: Monochoria vaginalis; test: Test Example 1: herbicidal activity, application before weed generation in submerged conditions (symbol C); details: application herbicide amount 320 g/ha
Procedure, shortened: as §1

[3] = test system: Scirpus juncoides; test: Test Example 2: herbicidal activity, application during weed generation in submerged conditions (symbol B); details: Table 23; application herbicide amount 320 g/ha; grade 0-5 by criteria of Test Example 1
Procedure, shortened: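 Compound was applied as a water-diluted emulsion into the standing water of flooded pots (4 cm) once co-sown weeds reached one to two leaves. Greenhouse temperature was 25° C. to 30° C., soil was alluvial, and each species was rated visually after 3 weeks.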

[4] = test system: Avena fatua; test: Test Example 4: herbicidal effect by soil treatment (symbol I); details: application herbicide amount 320 g/ha
Procedure, shortened: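 Seeds were sown in sterilized diluvial soil, covered with about 1.5 cm of soil, and the soil surface was sprayed with a water-diluted emulsion of the compound at a predetermined rate. Plants grew in a greenhouse at 25° C. to 30° C.; effects were scored visually 3 weeks after application.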

[5] = test system: corn; test: Test Example 4: effect on crop by soil treatment (symbol c); details: application herbicide amount 320 g/ha
Procedure, shortened: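 Seeds were sown in spots on sterilized diluvial soil in a plastic box and covered with about 1.5 cm of soil. Plants were then grown in a greenhouse at 25° C. to 30° C.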

[6] = test system: rice; test: Test Example 4: effect on crop by soil treatment (symbol b); details: application herbicide amount 320 g/ha
Procedure, shortened: (§2)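 Steps: fill box with sterilized diluvial soil; sow seed spot-like; cover with ~1.5 cm soil; grow in greenhouse (25° C. to 30° C.).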

[7] = test system: rapeseed; test: Test Example 4: effect on crop by soil treatment (symbol g); details: application herbicide amount 320 g/ha
Procedure, shortened: as §2

[8] = test system: Digitaria ciliaris; test: Test Example 5: herbicidal effect by foliage application, plastic box (symbol F); details: 320 g/ha, 3 weeks after application
Procedure, shortened: (§3)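 Seeds were sown in sterilized diluvial soil, covered with about 1.5 cm of soil and grown 14 days in a greenhouse at 25° C. to 30° C. An emulsifiable formulation diluted in water to a set rate was sprayed over foliage, and injury was scored 3 weeks later.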

[9] = test system: Lolium multiflorum Lam.; test: Test Example 5: herbicidal effect by foliage application, plastic box (symbol K); details: 320 g/ha, 3 weeks after application
Procedure, shortened: as §3

[10] = test system: Chenopodium album; test: Test Example 5: herbicidal effect by foliage application, plastic box (symbol O); details: 320 g/ha, 3 weeks after application
Procedure, shortened: as §3

[11] = test system: Galium spurium; test: Test Example 5: herbicidal effect by foliage application, plastic box (symbol Q); details: 320 g/ha, 3 weeks after application
Procedure, shortened: as §3

[12] = test system: Veronica persica; test: Test Example 5: herbicidal effect by foliage application, plastic box (symbol R); details: 320 g/ha, 3 weeks after application
Procedure, shortened: as §3

[13] = test system: corn; test: Test Example 5: effect on crop by foliage application, plastic box (symbol c); details: 320 g/ha, 3 weeks after application
Procedure, shortened: (§4)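 Foliage-application test plants come from spot sowing in sterilized diluvial soil under a soil layer of about 1.5 cm, grown at 25° C. to 30° C. in a greenhouse.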

[14] = test system: soybean; test: Test Example 5: effect on crop by foliage application, plastic box (symbol d); details: 320 g/ha, 3 weeks after application
Procedure, shortened: as §4

Row | SMILES | Herbicidal effect grade, B: Scirpus juncoides [1] | Herbicidal effect grade, C: Monochoria vaginalis [2] | Herbicidal effect grade, B: Scirpus juncoides [3] | Herbicidal effect grade, I: Avena fatua [4] | Effect on crop grade, c: corn [5] | Effect on crop grade, b: directly sowed rice plant [6] | Effect on crop grade, g: rapeseed [7] | F: Digitaria ciliaris, herbicidal effect (criteria of Test Example 1) [8] | K: Lolium multiflorum Lam., herbicidal effect (criteria of Test Example 1) [9] | O: Chenopodium album, herbicidal effect (criteria of Test Example 1) [10] | Q: Galium spurium, herbicidal effect (criteria of Test Example 1) [11] | R: Veronica persica, herbicidal effect (criteria of Test Example 1) [12] | c: corn, effect on crop (criteria of Test Example 1) [13] | d: soybean, effect on crop (criteria of Test Example 1) [14]
1 | CON=C(C)CC1CC(OC(=O)COc2ccccc2)=C(c2c(C)cc(C)cc2OC)C1=O (stereo not shown) [6-091] | 5 (Herbicidal ratio of 90% or more (almost completely withered)) | 4 (Herbicidal ratio of 70% or higher and lower than 90%) | 5 (Herbicidal ratio of 90% or more (almost completely withered)) | 5 (Herbicidal ratio of 90% or more (almost completely withered)) | 5 (Herbicidal ratio of 90% or more (almost completely withered)) | 5 (Herbicidal ratio of 90% or more (almost completely withered)) | 4 (Herbicidal ratio of 70% or higher and lower than 90%) | 5 (Herbicidal ratio of 90% or more (almost completely withered)) | 5 (Herbicidal ratio of 90% or more (almost completely withered)) | 3 (Herbicidal ratio of 40% or higher and lower than 70%) | 3 (Herbicidal ratio of 40% or higher and lower than 70%) | 4 (Herbicidal ratio of 70% or higher and lower than 90%) | 5 (Herbicidal ratio of 90% or more (almost completely withered)) | 4 (Herbicidal ratio of 70% or higher and lower than 90%)
2 | CON=C(C)CC1CC(OC(=O)COc2ccccc2)=C(c2c(C)cc(-c3ccc(Cl)cc3Cl)cc2C)C1=O (stereo not shown) [6-092] | 0 (Herbicidal ratio of 5% or lower (almost no effect)) | 0 (Herbicidal ratio of 5% or lower (almost no effect)) | 0 (Herbicidal ratio of 5% or lower (almost no effect)) | 3 (Herbicidal ratio of 40% or higher and lower than 70%) | 0 (Herbicidal ratio of 5% or lower (almost no effect)) | 4 (Herbicidal ratio of 70% or higher and lower than 90%) | 0 (Herbicidal ratio of 5% or lower (almost no effect)) | 5 (Herbicidal ratio of 90% or more (almost completely withered)) | 5 (Herbicidal ratio of 90% or more (almost completely withered)) | 5 (Herbicidal ratio of 90% or more (almost completely withered)) | 4 (Herbicidal ratio of 70% or higher and lower than 90%) | 4 (Herbicidal ratio of 70% or higher and lower than 90%) | 2 (Herbicidal ratio of 20% or higher and lower than 40%) | 1 (Herbicidal ratio of 5% or higher and lower than 20%)
3 | CON=C(C)CC1CC(OC(=O)N2CCOCC2)=C(c2c(C)cc(-c3ccc(F)c(Cl)c3)cc2C)C1=O (stereo not shown) [6-093] | 5 (Herbicidal ratio of 90% or more (almost completely withered)) | 4 (Herbicidal ratio of 70% or higher and lower than 90%) | 3 (Herbicidal ratio of 40% or higher and lower than 70%) | 0 (Herbicidal ratio of 5% or lower (almost no effect)) | 0 (Herbicidal ratio of 5% or lower (almost no effect)) | 1 (Herbicidal ratio of 5% or higher and lower than 20%) | 0 (Herbicidal ratio of 5% or lower (almost no effect)) | 5 (Herbicidal ratio of 90% or more (almost completely withered)) | 5 (Herbicidal ratio of 90% or more (almost completely withered)) | 5 (Herbicidal ratio of 90% or more (almost completely withered)) | 5 (Herbicidal ratio of 90% or more (almost completely withered)) | 5 (Herbicidal ratio of 90% or more (almost completely withered)) | 5 (Herbicidal ratio of 90% or more (almost completely withered)) | 2 (Herbicidal ratio of 20% or higher and lower than 40%)
4 | CON=C(C)CC1CC(OC(=O)N2CCOCC2)=C(c2c(C)cc(C)cc2OC)C1=O (stereo not shown) [6-094] | 5 (Herbicidal ratio of 90% or more (almost completely withered)) | 3 (Herbicidal ratio of 40% or higher and lower than 70%) | 2 (Herbicidal ratio of 20% or higher and lower than 40%) | 5 (Herbicidal ratio of 90% or more (almost completely withered)) | 1 (Herbicidal ratio of 5% or higher and lower than 20%) | 5 (Herbicidal ratio of 90% or more (almost completely withered)) | 4 (Herbicidal ratio of 70% or higher and lower than 90%) | 5 (Herbicidal ratio of 90% or more (almost completely withered)) | 5 (Herbicidal ratio of 90% or more (almost completely withered)) | 5 (Herbicidal ratio of 90% or more (almost completely withered)) | 5 (Herbicidal ratio of 90% or more (almost completely withered)) | 4 (Herbicidal ratio of 70% or higher and lower than 90%) | 5 (Herbicidal ratio of 90% or more (almost completely withered)) | 4 (Herbicidal ratio of 70% or higher and lower than 90%)
5 | CON=C(C)CC1CC(OS(=O)(=O)N(C)C)=C(c2c(C)cc(C)cc2OC)C1=O (stereo not shown) [6-095] | 4 (Herbicidal ratio of 70% or higher and lower than 90%) | 0 (Herbicidal ratio of 5% or lower (almost no effect)) | 3 (Herbicidal ratio of 40% or higher and lower than 70%) | 3 (Herbicidal ratio of 40% or higher and lower than 70%) | 2 (Herbicidal ratio of 20% or higher and lower than 40%) | 5 (Herbicidal ratio of 90% or more (almost completely withered)) | 4 (Herbicidal ratio of 70% or higher and lower than 90%) | 5 (Herbicidal ratio of 90% or more (almost completely withered)) | 5 (Herbicidal ratio of 90% or more (almost completely withered)) | 5 (Herbicidal ratio of 90% or more (almost completely withered)) | 0 (Herbicidal ratio of 5% or lower (almost no effect)) | 3 (Herbicidal ratio of 40% or higher and lower than 70%) | 5 (Herbicidal ratio of 90% or more (almost completely withered)) | 3 (Herbicidal ratio of 40% or higher and lower than 70%)
